Data on 2 compounds can be found in article PMC5473904, “Epigenetic and antitumor effects of platinum(IV)-octanoato conjugates” (Scientific Reports, 2017).

Structures are written as SMILES.

On the set-up of data set [1]: method as in PMID 25888926. The note with it: valproato complexes; cited from earlier work.
The subject of data set [2] is mitochondrial membrane potential Δψ m in HCT-116 cells. Put plainly: Mitochondrial membrane potential, TMRE staining and confocal microscopy. Type of data set: cell-based, human. The note with it: HCT-116, 1 µM, 5 h. The protocol:
The loss of Δψ m represents an early event in the apoptosis cascade that precedes the release of pro-apoptotic factors such as cytochrome c and the activation of effector caspases.
HCT-116 cells were seeded on glass bottom dishes (P50G-0-30-F, MatTek Co., Ashland, USA) at the density 3 × 10^5 cells per dish, cultured in RPMI-1640 medium (without phenol red) and incubated at 37 °C in a humidified 5% CO2 atmosphere overnight. The cells were subsequently treated with the compounds (1 μM) for 5 h. After this period, cells were washed twice with PBS and resuspended in staining medium (without Pt compound), supplemented with Hoechst 33258 and tetramethylrhodamine, ethyl ester (TMRE) from multiparametric apoptosis assay kit (Cayman Chemical, Michigan, USA) according to the manufacturer’s protocol. After 20 min of staining, the staining medium was replaced by a fresh medium (without staining dye and platinum compound).
Images of living cells were acquired with a Leica TSC SP-5X laser scanning confocal microscope (Leica Microsystems, Mannheim, Germany) using an HCX PL APO lambda blue 63.0 × 1.20 water UV objective lens corrected with an appropriate beam path (resolution 1024 × 1024, frequency 100 Hz). […] Quantification of the mean signal intensity associated with single cells was performed using software ImageJ v1.47, U.S. National Institutes of Health, Bethesda, Maryland, USA.

With `CCCC(CCC)C(=O)[O][Pt]([NH2])([NH2])([Cl])([Cl])[O]C(=O)C(CCC)CCC` [Pt(IV)diVPA, cis, cis, trans-[Pt(IV)(NH3)2Cl2(VPA)2]], the logP in data set [1] is given as 0.25.

Turning to `CC(=O)[O][Pt]([NH2])([NH2])([Cl])([Cl])[O]C(C)=O` [Pt(IV)diAc, cis, cis, trans-[Pt(IV)(NH3)2Cl2(Ac)2]], the “Reduction in the fraction of cells with an intact Δψ m relative to untreated control” value in data set [2] was “no reduction”.

What is called logP is the decadic logarithm of the partition coefficient of the neutral form, usually between octanol and water.
